{"source": "patent US9682049B2", "about": "“Non-racemic mixtures of various ratios of D- and L-methadone and methods of treating pain using the same” (priority 2015, dated 2017)", "key": {"[1]": {"test_system": "painful diabetic neuropathy", "test": "Changes in VAS scores (SF-MPQ), double-blind randomized crossover study vs placebo", "assay_type": "in vivo, human", "protocol": "(§1) Potential patients were recruited by advertising and screened via interview, review of health history and medications, physical examination, lab work, and ECG.\n(§2) The average daily pain score and the worst daily pain scores were measured. Patients recorded their pain score four times daily on a scale of 0 to 10. Additionally, pain scores were measured using a Visual Analog Scale (VAS) during weekly visits to the study center.\nVAS is a measurement instrument that measures a characteristic or attitude that is believed to range across a continuum of values. For example, the amount of pain that a patient feels may range across a continuum from no pain to an extreme amount of pain. […] In order to capture this underlying continuum, VAS was devised, and in the present study, VAS was used as described here. (See e.g., D. Gould et al., J. Clin. Nursing, 10: 697-706 (2001)).\nVAS was conducted by using a horizontal line, 100 mm in length, anchored by word descriptors at each end, as illustrated below. Patients marked on a line (as shown below) the point that best represented their perception of pain.\nA VAS score was determined by measuring in millimeters from the left hand end of the line to the point that the patient marked."}, "[2]": {"test_system": "painful diabetic neuropathy", "test": "Changes in average daily pain scores, double-blind randomized crossover study vs placebo", "assay_type": "in vivo, human", "protocol": "as §1, §2"}, "[3]": {"test_system": "patients with painful diabetic neuropathy", "test": "Patient withdrawal because of side effects in the 3:1 D:L-methadone study", "settings": "terminated the study because of side effects (mostly nausea and vomiting)", "protocol": "Patients were subjected to forceful weekly titration of doses from 15 mg the first week, to 30 mg the second week, and to 40 mg the third and fourth weeks."}, "[4]": {"test": "Solubility of 75/25 D/L methadone HCl drug substance", "assay_type": "physicochemical", "source_text": "General Properties of 75/25 D/L Methadone-HCl Included the Following Physical Characteristics: […]"}, "[5]": {"test_system": "neuropathic pain", "settings": "Lemberg et al. 2006; cited from earlier work"}, "[6]": {"test_system": "neuropathic pain model", "settings": "intrathecal, rats; not reversed by naloxone; cited from earlier work"}, "[7]": {"test_system": "neuropathic pain", "settings": "small group of patients, high dose; cited from earlier work"}, "[8]": {"test_system": "neuropathic pain", "settings": "cited from earlier work; for placebo-adjusted relief of average daily pain intensity: Morley"}, "[9]": {"test_system": "patients with neuropathic pain", "settings": "Morley study; cited from earlier work"}}, "note": "Where a name gives a salt, the structure may show the parent alone. Read-outs that look alike come from different tables or passages of the source."}
{"molecule": "CCC(=O)C(CC(C)N(C)C)(c1ccccc1)c1ccccc1", "note": "(racemic) [75:25 D:L-methadone, Mixture of 75% (6S)-6-(dimethylamino)-4,4-dipheylhepan-3-one hydrochloride and 25% (6R)-6-(dimethylamino)-4,4-dipheylhepan-3-one hydrochloride]", "values": [{"measurement": "Change in VAS score (SF-MPQ), median", "setting": "[1]; 15 mg", "result": "−7.0"}, {"measurement": "Change in VAS score, difference in means vs placebo (95% CI)", "setting": "[1]; 15 mg", "result": "−10.1 (−21.0; 0.9)"}, {"measurement": "Change in VAS score (SF-MPQ), mean", "setting": "[1]; 15 mg, VAS 100 mm line, primary efficacy population", "result": "−12.8"}, {"measurement": "Change in VAS score (SF-MPQ), mean", "setting": "[1]; 30 mg", "result": "−14.9"}, {"measurement": "Change in VAS score (SF-MPQ), median", "setting": "[1]; 30 mg", "result": "−8.0"}, {"measurement": "Change in VAS score, difference in means vs placebo (95% CI)", "setting": "[1]; 30 mg", "result": "−6.3 (−17.4; 4.9)"}, {"measurement": "Change in VAS score (SF-MPQ), mean", "setting": "[1]; 40 mg (1st Week)", "result": "−19.5"}, {"measurement": "Change in VAS score (SF-MPQ), median", "setting": "[1]; 40 mg (1st Week)", "result": "−13.0"}, {"measurement": "Change in VAS score, difference in means vs placebo (95% CI)", "setting": "[1]; 40 mg (1st Week)", "result": "−10.5 (−19.6; −1.4)"}, {"measurement": "Change in VAS score (SF-MPQ), mean", "setting": "[1]; 40 mg (2nd Week)", "result": "−20.7"}, {"measurement": "Change in VAS score (SF-MPQ), median", "setting": "[1]; 40 mg (2nd Week)", "result": "−10.0"}, {"measurement": "Change in VAS score, difference in means vs placebo (95% CI)", "setting": "[1]; 40 mg (2nd Week)", "result": "−8.1 (−18.3; 2.2)"}, {"measurement": "Change in VAS score (SF-MPQ), mean", "setting": "[1]; 40 mg (Both Weeks)", "result": "−20.1"}, {"measurement": "Change in VAS score (SF-MPQ), median", "setting": "[1]; 40 mg (Both Weeks)", "result": "−12.0"}, {"measurement": "Change in VAS score, difference in means vs placebo (95% CI)", "setting": "[1]; 40 mg (Both Weeks)", "result": "−9.3 (−15.8; − 2.8)"}, {"measurement": "Change in VAS score (SF-MPQ), mean", "setting": "[1]; 15-30 mg (Combined), pooled", "result": "−13.9"}, {"measurement": "Change in VAS score (SF-MPQ), median", "setting": "[1]; 15-30 mg (Combined), pooled", "result": "−8.0"}, {"measurement": "Change in VAS score, difference in means vs placebo (95% CI)", "setting": "[1]; 15-30 mg (Combined), pooled", "result": "−8.1 (−15.6; −0.6)"}, {"measurement": "placebo-adjusted relief of average daily pain intensity", "setting": "[1]; lowest tested dose (15 mg) of the 3:1 mixture", "result": "−10.1"}, {"measurement": "placebo-adjusted relief of average daily pain intensity compared with 10 mg of racemic methadone", "setting": "[1]; vs Morley 10 mg racemic methadone", "result": 3, "unit": "times better"}, {"measurement": "placebo-adjusted relief of average daily pain intensity compared with 20 mg of racemic methadone", "setting": "[1]; vs Morley 20 mg racemic methadone", "result": 54, "unit": "% better"}, {"measurement": "Change in average daily pain score, Difference in Means vs placebo (95% CI)", "setting": "[2]; 15 mg", "result": "−0.84 (−1.64; −0.04)"}, {"measurement": "Change in average daily pain score, Mean (SD)", "setting": "[2]; 15 mg, scale of 0 to 10, two clinical sites combined", "result": "−0.88 (1.46)"}, {"measurement": "Change in average daily pain score, Difference in Means vs placebo (95% CI)", "setting": "[2]; 30 mg", "result": "−1.14 (−2.30; 0.02)"}, {"measurement": "Change in average daily pain score, Mean (SD)", "setting": "[2]; 30 mg", "result": "−1.41 (1.87)"}, {"measurement": "Change in average daily pain score, Difference in Means vs placebo (95% CI)", "setting": "[2]; 40 mg (1st Week)", "result": "−1.08 (−2.20; 0.03)"}, {"measurement": "Change in average daily pain score, Mean (SD)", "setting": "[2]; 40 mg (1st Week)", "result": "−1.57 (1.98)"}, {"measurement": "Change in average daily pain score, Difference in Means vs placebo (95% CI)", "setting": "[2]; 40 mg (2nd Week)", "result": "−1.17 (−2.28; −0.06)"}, {"measurement": "Change in average daily pain score, Mean (SD)", "setting": "[2]; 40 mg (2nd Week)", "result": "−1.73 (2.01)"}, {"measurement": "Change in average daily pain score, Difference in Means vs placebo (95% CI)", "setting": "[2]; 40 mg (Both Weeks)", "result": "−1.13 (−1.88; −0.38)"}, {"measurement": "Change in average daily pain score, Mean (SD)", "setting": "[2]; 40 mg (Both Weeks)", "result": "−1.65 (1.97)"}, {"measurement": "Change in average daily pain score, Difference in Means vs placebo (95% CI)", "setting": "[2]; 15-30 mg Combined", "result": "−0.99 (1.67; −0.31)"}, {"measurement": "Change in average daily pain score, Mean (SD)", "setting": "[2]; 15-30 mg Combined", "result": "−1.14 (1.67)"}, {"measurement": "patient withdrawal rate", "setting": "[3]", "result": 17, "unit": "%"}, {"measurement": "Solubility", "setting": "[4]; alcohols", "result": "readily soluble"}, {"measurement": "Solubility", "setting": "[4]; ether", "result": "practically insoluble"}, {"measurement": "Solubility", "setting": "[4]; methylene chloride", "result": "readily soluble"}, {"measurement": "Solubility", "setting": "[4]; water", "result": "readily soluble"}]}
{"molecule": "CCC(=O)C(C[C@@H](C)N(C)C)(c1ccccc1)c1ccccc1", "note": "[L-methadone, (R)-(−)-methadone]", "values": [{"measurement": "potency in neuropathic pain", "setting": "[5]", "result": "greater potency than other opioids"}]}
{"molecule": "CCC(=O)C(C[C@H](C)N(C)C)(c1ccccc1)c1ccccc1", "note": "[D-methadone, (S)-(+)-methadone]", "values": [{"measurement": "antinociception", "setting": "[6]", "result": "produced antinociception"}, {"measurement": "potency in neuropathic pain", "setting": "[5]", "result": "inactive"}, {"measurement": "analgesic response", "setting": "[7]", "result": "no analgesic response"}]}
{"molecule": "CCC(=O)C(CC(C)N(C)C)(c1ccccc1)c1ccccc1", "note": "(racemic) [racemic methadone, methadone]", "values": [{"measurement": "placebo-adjusted relief of average daily pain intensity", "setting": "[8]; 10 mg of racemic methadone", "result": "−3.20"}, {"measurement": "placebo-adjusted relief of average daily pain intensity", "setting": "[8]; 20 mg of racemic methadone", "result": "−6.56"}, {"measurement": "analgesic effect in neuropathic pain", "setting": "[8]; Morley et al. 2003", "result": "analgesic effect"}, {"measurement": "patient withdrawal rate", "setting": "[9]", "result": 37, "unit": "%"}]}
